# Like-named read-outs stand apart in the source and are kept apart here.
# Legend:
# Aspergillus brasiliensis = settings: 1000 ppm, pH 4.0
# Description: (§1) To determine ascertain bactericidal and fungicidal qualities of the present food preservative solution, certain embodiments containing a combination of phenylacrylic acid, sorbic acid, a potentiation agent and a stabilization agent were subjected to a modified version of the United States Pharmocopedia (USP) antimicrobial efficacy test found in chapter 51 of the USP 40 manual. All embodiments were between pH 3.95-4.05.
# (§2) To each of the embodiments, 1×10^6 cells from the following spoilage organisms; Escheria coli, Listeria monocytogenes, Salmonella entericia, Aspergillus flavus, Aspergillus brasiliensis, and Zygosaccharomyces bailii. The microbials were homogeneously dispersed in the various embodiments. Small aliquots are taken from the inoculated samples at the appropriate time point is serial diluted and plated. The plates are incubated, and growth is then enumerated. The counts are multiplied by the appropriate dilution factor to give a viable cell count at that time point.
# Aspergillus flavus = settings: 1000 ppm, pH 4.0
# Description: as §1, §2
# Escheria coli = settings: 1000 ppm, pH 4.0
# Description: as §1, §2
# Listeria monocytogenes = settings: 1000 ppm, pH 4.0
# Description: as §1, §2
# Salmonella entericia = settings: 1000 ppm, pH 4.0
# Description: as §1, §2
# Zygosaccharomyces bailii = settings: 1000 ppm, pH 4.0
# Description: as §1, §2
# [1] = system: Saccharomyces cerevisiae, Candida parapsilosis, Zygosaccharomyces rouxii, and Zygosaccharomyces bailii; assay: Experimental Test 3, summary statements over the yeast species; assay type: cell-based; settings: Tables 12-15; pH 3.1-7.5
# Protocol: The media was then sterilized by steam autoclaving the solution for 15 minutes at 121° C. and the media was placed into 3 96 cell plates and pH using either 0.1N HCl or 0.1N NaOH to pH values of 3.1, 5.6, 6.0, 6.5, 7.0, and 7.5.
# Three exemplary embodiment solutions were added and serial diluted into a series of treatment wells and 0.5 McFarland Standard's worth of yeast cells were added to each well. The plates were incubated at 32° C. for 48 hours and then the OD was read at 600 nm. The percent inhibition was graphed as a percentage of the following formula indicated in Equation 1.
structure (smiles),measurement,setting,value
"CC=CC=CC(=O)O [Sorbic Acid, 2,4 hexadienoic acid]",Microbial plate count,Aspergillus brasiliensis; Test Day 0,630000 CFU/g
same,Microbial plate count,Aspergillus brasiliensis; Test Day 0.5,230000 CFU/g
same,Microbial plate count,Aspergillus brasiliensis; Test Day 1,520 CFU/g
same,Microbial plate count,Aspergillus brasiliensis; Test Day 3,<10 CFU/g
same,Microbial plate count,Aspergillus brasiliensis; Test Day 7,<10 CFU/g
same,Microbial plate count,Aspergillus flavus; Test Day 0,510000 CFU/g
same,Microbial plate count,Aspergillus flavus; Test Day 0.5,8500 CFU/g
same,Microbial plate count,Aspergillus flavus; Test Day 1,<10 CFU/g
same,Microbial plate count,Aspergillus flavus; Test Day 3,<10 CFU/g
same,Microbial plate count,Aspergillus flavus; Test Day 7,<10 CFU/g
same,Microbial plate count,Escheria coli; Test Day 0,580000 CFU/g
same,Microbial plate count,Escheria coli; Test Day 0.5,<10 CFU/g
same,Microbial plate count,Escheria coli; Test Day 1,<10 CFU/g
same,Microbial plate count,Escheria coli; Test Day 3,<10 CFU/g
same,Microbial plate count,Escheria coli; Test Day 7,<10 CFU/g
same,Microbial plate count,Listeria monocytogenes; Test Day 0,620000 CFU/g
same,Microbial plate count,Listeria monocytogenes; Test Day 0.5,<10 CFU/g
same,Microbial plate count,Listeria monocytogenes; Test Day 1,<10 CFU/g
same,Microbial plate count,Listeria monocytogenes; Test Day 3,<10 CFU/g
same,Microbial plate count,Listeria monocytogenes; Test Day 7,<10 CFU/g
same,Microbial plate count,Salmonella entericia; Test Day 0,800000 CFU/g
same,Microbial plate count,Salmonella entericia; Test Day 0.5,<10 CFU/g
same,Microbial plate count,Salmonella entericia; Test Day 1,<10 CFU/g
same,Microbial plate count,Salmonella entericia; Test Day 3,<10 CFU/g
same,Microbial plate count,Salmonella entericia; Test Day 7,<10 CFU/g
same,Microbial plate count,Zygosaccharomyces bailii; Test Day 0,480000 CFU/g
same,Microbial plate count,Zygosaccharomyces bailii; Test Day 0.5,130000 CFU/g
same,Microbial plate count,Zygosaccharomyces bailii; Test Day 1,1600 CFU/g
same,Microbial plate count,Zygosaccharomyces bailii; Test Day 3,120 CFU/g
same,Microbial plate count,Zygosaccharomyces bailii; Test Day 7,<10 CFU/g
O=C(O)C(O)c1ccccc1 (stereo not shown) [mandelic acid],increase of the efficacy of potassium sorbate by addition of mandelic acid,[1],2-10 ×

# — patent US20200029601A1, “PHENYLACRYLIC ACID SOLUTION FOR BROAD SPECTRUM ANTIMICROBIAL APPLICATIONS FOR FOODSTUFFS” (KLF LABS LLC, priority 2018, published 2020)
